Results: patent publication US8871756B2 (Hoffmann-La Roche Inc., priority 2011, dated 2014)

Assays:
[1] = system: RSV infection; settings: selected infants; intramuscularly at 15 mg/kg once a month for the duration of RSV season; cited from earlier work
[2] = system: established RSV infection; settings: in vivo; cited from earlier work
[3] = system: RSV; settings: Phase III clinical trials; cited from earlier work
[4] = system: RSV Long strain; assay: Viral cytopathic effect (CPE) assay, anti-RSV activity; type: cell-based, Respiratory Syncytial Virus; settings: RSV Long strain (ATCC), cell viability after 6 days, Cell Counting kit-8
In short: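 Cells (6×10^3/well, DMEM with 10% FBS) were infected next day with RSV Long strain, at a dose giving approximately 80–90% CPE, alongside serial half-log compound dilutions. Viability was read after 6 days by CCK-8 absorbance at 450 nm (reference 630 nm), and EC50 was derived from it.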

[5] = human respiratory syncytial virus, 144 h

EC50 [4, 5] [µM] | Molecule | other results
 | palivizumab | reduction of hospitalization rate caused by RSV infection [1]: 45-55%; efficacy in the treatment of established RSV infection [2]: not effective
 | motavizumab | benefit over palivizumab [3]: failed to show additional benefit over palivizumab
0.037 | NC1(CNc2nc(N3CCS(=O)(=O)c4ccccc4C3)nc3ccc(Cl)cc23)COC1 [Example 57-6, N-[(3-Aminooxetan-3-yl)methyl]-6-chloro-2-(1,1-dioxido-2,3-dihydro-1,4-benzothiazepin-4(5H)-yl)quinazolin-4-amine] | 
0.004 | Cc1ccc2nc(N3CCS(=O)(=O)c4ccccc4C3)cc(NCC(C)(O)CN)c2c1 (centres unmarked) [Example 11-4, 1-Amino-3-{[2-(1,1-dioxido-2,3-dihydro-1,4-benzothiazepin-4(5H)-yl)-6-methylquinolin-4-yl]amino}-2-methylpropan-2-ol] | 
0.071 | Cc1ccc2nc(N3CCS(=O)(=O)c4ccccc4C3)cc(NCC3CCCCN3)c2c1 (centres unmarked) [Example 3-41, 2-(1,1-Dioxido-2,3-dihydro-1,4-benzothiazepin-4(5H)-yl)-6-methyl-N-(piperidin-2-ylmethyl)quinolin-4-amine] | 
0.012 | NCCNc1cc(N2CCS(=O)(=O)c3ccccc3C2)nc2ccccc12 [Example 9-15, N-[2-(1,1-Dioxido-2,3-dihydro-1,4-benzothiazepin-4(5H)-yl)quinolin-4-yl]ethane-1,2-diamine] | 
7.2 | COCCNc1cc(N2CCS(=O)(=O)c3ccccc3C2)nc2ccc(C)cc12 [Example 9-26, 2-(1,1-Dioxido-2,3-dihydro-1,4-benzothiazepin-4(5H)-yl)-N-(2-methoxyethyl)-6-methylquinolin-4-amine] | 
0.157 | NCCNc1cc(N2CCS(=O)(=O)c3ccccc3C2)nc2ccc(F)cc12 [Example 9-9, N-[2-(1,1-Dioxido-2,3-dihydro-1,4-benzothiazepin-4(5H)-yl)-6-fluoroquinolin-4-yl]ethane-1,2-diamine] | 
0.009 | Cc1ccc2nc(N3CCS(=O)(=O)c4ccccc4C3)cc(NCC(F)(F)CN)c2c1 [Example 3-19, N-[2-(1,1-Dioxido-2,3-dihydro-1,4-benzothiazepin-4(5H)-yl)-6-methylquinolin-4-yl]-2,2-difluoropropane-1,3-diamine] | 
6.86 | N[C@@H]1CN(c2cc(N3CC[S+]([O-])c4ccccc4C3)nc3ccc(Cl)cc23)C[C@H]1F (relative stereo) [Example 19-7, trans-1-[6-Chloro-2-(1-oxido-2,3-dihydro-1,4-benzothiazepin-4(5H)-yl)quinolin-4-yl]-4-fluoropyrrolidin-3-amine] | 
0.005 | Cc1ccc2nc(N3CCS(=O)(=O)c4ccccc4C3)cc(NC3CNC3)c2c1 [Example 26-1, N-(Azetidin-3-yl)-2-(1,1-dioxido-2,3-dihydro-1,4-benzothiazepin-4(5H)-yl)-6-methylquinolin-4-amine] | 
0.006 | Cc1ccc2nc(N3CCS(=N)(=O)c4ccccc4C3)cc(NCCN)c2c1 (centres unmarked) [Example 76, N-[2-(1-Imino-1-oxido-1,2,3,5-tetrahydro-4H-1lambda˜4˜,4-benzothiazepin-4-yl)-6-methylquinolin-4-yl]ethane-1,2-diamine] | 
1.42 | Cc1ccc2nc(N3CCS(=O)(=O)c4ccccc4C3)cc(NC3=NCCN3)c2c1 [Example 7, N-(4,5-Dihydro-1H-imidazol-2-yl)-2-(1,1-dioxido-2,3-dihydro-1,4-benzothiazepin-4(5H)-yl)-6-methylquinolin-4-amine] | 
6.45 | CS(=O)(=O)c1ccc2nc(N3CCCc4ccccc4C3)cc(NCCN)c2c1 [Example 118-24, N-[6-(Methylsulfonyl)-2-(1,3,4,5-tetrahydro-2H-2-benzazepin-2-yl)quinolin-4-yl]ethane-1,2-diamine] | 
 | Cc1ccc2nc(N3CC[S+]([O-])c4ccccc4C3)cc(NCC3(N)COC3)c2c1 (single isomer, unassigned; (+)) [Example 18-2, (+)-N-[(3-Aminooxetan-3-yl)methyl]-6-methyl-2-[1-oxido-2,3-dihydro-1,4-benzothiazepin-4(5H)-yl]quinolin-4-amine] | EC50 [4]: 0.024 µM
0.257 | Cc1ccc2nc(N3CCS(=O)(=O)c4ccccc4C3)cc(N3CC[C@@H](O)C3)c2c1 [Example 15-4, (3R)-1-[2-(1,1-Dioxido-2,3-dihydro-1,4-benzothiazepin-4(5H)-yl)-6-methylquinolin-4-yl]pyrrolidin-3-ol] | 
 | Cc1ccc2nc(N3CC[S+]([O-])c4ccccc4C3)nc(NCC3(CN)COC3)c2c1 (single isomer, unassigned; (-)) [Example 62-2] | EC50 [4]: 0.0017 µM
1.5 | Cc1cccc2c(NCCCN)cc(N3CCS(=O)(=O)c4ccccc4C3)nc12 [Example 17-5, N-[2-(1,1-Dioxido-2,3-dihydro-1,4-benzothiazepin-4(5H)-yl)-8-methylquinolin-4-yl]propane-1,3-diamine] | 
0.432 | Cc1ccc2nc(N3CCS(=O)(=O)c4ccccc4C3)cc(NC(=O)c3cnccn3)c2c1 [Example 47-8, N-[2-(1,1-Dioxido-2,3-dihydro-1,4-benzothiazepin-4(5H)-yl)-6-methylquinolin-4-yl]pyrazine-2-carboxamide] | 
0.015 | Cc1ccc2nc(N3CCS(=O)(=O)c4ccccc4C3)cc(NCC(C)(C)N)c2c1 [Example 5-3, N˜1˜-[2-(1,1-Dioxido-2,3-dihydro-1,4-benzothiazepin-4(5H)-yl)-6-methylquinolin-4-yl]-2-methylpropane-1,2-diamine] | 
0.931 | Cc1ccc2nc(N3CCS(=O)(=O)c4ccccc4C3)cc(NC(=O)Nc3ccccc3)c2c1 [Example 50-1, 1-[2-(1,1-Dioxido-2,3-dihydro-1,4-benzothiazepin-4(5H)-yl)-6-methylquinolin-4-yl]-3-phenylurea] | 
0.005 | NCC1(CNc2cc(N3CCS(=O)(=O)c4ccccc4C3)nc3ccccc23)COC1 [Example 3-52, N-{[3-(Aminomethyl)oxetan-3-yl]methyl}-2-(1,1-dioxido-2,3-dihydro-1,4-benzothiazepin-4(5H)-yl)quinolin-4-amine] | 
0.096 | Cc1ccc2nc(N3CCS(=O)(=O)c4ccccc4C3)nc(NCC(O)CO)c2c1 (centres unmarked) [Example 87-1, 3-{[2-(1,1-Dioxido-2,3-dihydro-1,4-benzothiazepin-4(5H)-yl)-6-methylquinazolin-4-yl]amino}propane-1,2-diol] | 
0.006 | Cc1ccc2nc(N3CCS(=O)(=O)c4ccccc4C3)cc(N3C[C@@H](N)[C@H](O)C3)c2c1 (relative stereo) [Example 19-3, trans-4-Amino-1-[2-(1,1-dioxido-2,3-dihydro-1,4-benzothiazepin-4(5H)-yl)-6-methylquinolin-4-yl]pyrrolidin-3-ol] | 
0.107 | Cc1ccc2nc(N3CCC(F)(F)c4ccccc4C3)cc(NCCCCN)c2c1 [Example 111-10, N-[2-(5,5-Difluoro-1,3,4,5-tetrahydro-2H-2-benzazepin-2-yl)-6-methylquinolin-4-yl]butane-1,4-diamine] | 
0.002 | Cc1ccc2nc(N3CCS(=O)(=O)c4ccc(O)cc4C3)cc(NCC3(N)COC3)c2c1 [Example 66, 4-(4-{[(3-Aminooxetan-3-yl)methyl]amino}-6-methylquinolin-2-yl)-2,3,4,5-tetrahydro-1,4-benzothiazepin-7-ol 1,1-dioxide] | 
0.702 | NCCCNc1cc(N2CCS(=O)(=O)c3ccccc3C2)nc2ccc(Oc3ccccn3)cc12 [Example 31, N-[2-(1,1-Dioxido-2,3-dihydro-1,4-benzothiazepin-4(5H)-yl)-6-(pyridin-2-yloxy)quinolin-4-yl]propane-1,3-diamine] | 
0.322 | COc1cccc2c1S(=O)(=O)CCN(c1cc(NCC3(N)COC3)c3cc(C)ccc3n1)C2 [Example 65, N-[(3-Aminooxetan-3-yl)methyl]-2-(9-methoxy-1,1-dioxido-2,3-dihydro-1,4-benzothiazepin-4(5H)-yl)-6-methylquinolin-4-amine] | 
